Four compounds from patent US10745428B2, “Antiviral phosphodiamide prodrugs of tenofovir” (Merck Sharp & Dohme Corp., priority 2015, dated 2020) can be followed below.

Structures are written as SMILES. Read-outs that look alike come from different tables or passages of the source.

Data set [1] relates to HIV-1 (H9/IIIB strain). The experiment in a line: Multiple round HIV-1 infection assay (Viking assay), HIV-1 replication in MT4-GFP cells. The format is cell-based. Conditions: MT4-GFP cells infected with HIV-1 H9/IIIB. The procedure:
The antiviral activity of the tenofovir prodrugs of the Examples herein was assessed in an assay that measures the rate of replication of HIV in cell culture, termed the Viking assay (VIral KINetics in Green cells) and performed as follows. HIV-1 replication was monitored using MT4-gag-GFP clone D3 (hereafter designated MT4-GFP; GFP is green fluorescent protein), which are MT-4 cells modified to harbor a GFP reporter gene, the expression of which is dependent on the HIV-1 expressed proteins tat and rev; see Wang Y-J et al., 2010J Virological Methods 165:230-237. Productive infection of an MT4-GFP cell with HIV-1 results in GFP expression approximately 24 h post-infection. MT4-GFP cells were maintained at 37° C./5% CO2/90% relative humidity in RPMI 1640 supplemented with 10% fetal bovine serum, 100 U/ml penicillin/streptomycin, and 400 μg/ml G418 to maintain the reporter gene. For infections, MT4-GFP cells were placed in the same medium lacking G418 and infected overnight with HIV-1 (H9/IIIB strain) virus at an approximate multiplicity of infection of 0.01 in the same incubation conditions. Cells were then washed and re-suspended in either RPMI 1640 supplemented with 10% or 50% normal human serum (NHS) at 1.6×10^5 cells/mL (10% NHS or 50% NHS, respectively). Compound plates were prepared by dispensing compounds dissolved in DMSO into wells of 384 well poly-D-lysine-coated plates (0.2 μl/well) using an ECHO acoustic dispenser. Each compound was tested in a 10-point serial 3-fold dilution (typical final concentrations: 8.4 μM-0.42 nM). Controls included no inhibitor (DMSO only) and a combination of three antiviral agents (efavirenz, indinavir, and an integrase strand transfer inhibitor at final concentrations of 4 μM each). Cells were added (50 μL/well) to compound plates and the infected cells were maintained at 37′C/5% CO2/90% relative humidity.
Infected cells were quantified at two time points, ˜48 h and ˜72 h post-infection, by counting the number of green cells in each well using an Acumen eX3 scanner. The increase in the number of green cells over ˜24 h period gives the reproductive ratio, R0, which is typically 5-15 and has been shown experimentally to be in logarithmic phase (data not shown). R0 is calculated for each well, and IC50s determined by non-linear 4-parameter curve fitting.

Data set [2] is described as follows: Prodrug stability assay in bio-relevant media (FaSSIF with Pancreatin), GI Tract stability. Particulars: HPLC peak area of prodrug at 5 h divided by area at 0 h; 0.5 mg/mL Pancreatin in FaSSIF, 37° C. Type of data set: in vitro ADME. The procedure:
The following assay was employed to evaluate the stability of the prodrugs in simulated gastrointestinal tract conditions. Preparation of fasted state simulated intestinal fluid (FaSSIF) using Phares SIF Powder was carried out according to protocols from Phare Drug Delivery AG (Baselland, Switzerland). For sample preparation, 10 μL stock solutions (10 mM) of prodrug substance in DMSO was added to 990 μL of 0.5 mg/mL Pancreatin solution (Fisher CAS#8049-47-6) in FaSSIF. Two samples were prepared for each compound. If the sample was a clear solution, it was directly analyzed by HPLC. If the sample was not clear, the sample was diluted with 100% ACN, maintained at 37° C. and observed 5 h later. If the sample was clear, HPLC analysis was directly performed. If the sample was still not clear, the sample was diluted with 100% ACN and assayed by HPLC. All the samples were vortexed for 3 min and observed before injection. For the diluted samples, the area is multiplied by a factor when the data is analyzed. The analysis was carried out with an Agilent 1100 series HPLC with autosampler. The column was usually a Poroshell 120 EC-C18, 4.6×50 mm, 2.7 μm. The flow rate was 1.8 mL/min, and the injection volume was 5 or 10 μL. UV detection was in the range 210-400 nm. The mobile phase consisted of solvent A (water plus 10 mM tetrabutylammonium bromide) and solvent B (acetonitrile) with a gradient of 90% solvent A at 0 min, changing to 95% solvent B over 6 min, maintaining for 1.5 min, then reverting to 90% solvent A over 1.6 min. The HPLC peak area of the prodrug at 5 h was divided by the HPLC peak area of the prodrug at 0 h, to generate the % claimed parent ratio, which is summarized in Table 2. for GI Tract stability.

Setting [3] is: 10% normal human serum, read-out: Viking, IC50 (10% NHS).
Where [4] appears, read: 50% normal human serum, read-out: Viking, IC50 (50% NHS).

By IC50 is commonly meant the point on the concentration scale where inhibition reaches its midpoint. `CCCCCOC(=O)C(C)(C)NP(=O)(CO[C@H](C)Cn1cnc2c(N)ncnc21)N[C@H](C)C(=O)OC1CCCC1` (single isomer, unassigned) [Example 24B]: the figures for the IC50 in data set [1] (setting [3]) and in data set [1] (setting [4]) were 0.9 nM and 3.9 nM, respectively. The “GI Tract stability” value in data set [2] is reported as 82.7%.

In the case of `CCCCCCOC(=O)[C@@H](C)NP(=O)(CO[C@H](C)Cn1cnc2c(N)ncnc21)NC(C)(C)C(=O)OCCCCCC` (single isomer, unassigned) [Example 13A], the IC50 is 7.2 nM in data set [1] (Human immunodeficiency virus 1, IIIB, 10% normal human serum, read-out: Viking, IC50 (10% NHS)) and 40.4 nM in data set [1] (Human immunodeficiency virus 1, IIIB, 50% normal human serum, read-out: Viking, IC50 (50% NHS)). In addition, the “GI Tract stability” value in data set [2] was found to be 99.1%.

Consider `CC(C)OC(=O)C(C)(C)NP(=O)(CO[C@H](C)Cn1cnc2c(N)ncnc21)N[C@H](C)C(=O)OC1CCCC1` (single isomer, unassigned) [Example 1B], for which the values for the IC50 in data set [1] (setting [3]) and in data set [1] (setting [4]) were 2.4 nM and 6.2 nM, respectively. In addition, the “GI Tract stability” value in data set [2] was determined as 95.9%.

Turning to `CCCCCOC(=O)C(C)(C)NP(=O)(CO[C@H](C)Cn1cnc2c(N)ncnc21)N[C@H](C)C(=O)OCCCC` (single isomer, unassigned) [Example 9B], the IC50 in data set [1] (setting [3]) was 1 nM; in data set [1] (setting [4]), 4.2 nM. Besides, the “GI Tract stability” value in data set [2] was 73.9%.
